Experimental data taken from patent US20230085307A1, “PYRIDAZINONE COMPOUND AND HERBICIDE” (NISSAN CHEMICAL CORPORATION, priority 2019, published 2023).

Columns and labels:
[1] = tested on: green foxtail; assay: Test Example 4: herbicidal effect by soil treatment (Table 19, symbol G); assay type: in vivo, green foxtail (Setaria viridis); conditions: amount of applied herbicide 320 g/ha
In short: (§1)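 Step 1: sow seeds in sterilized diluvial soil, cover ~1.5 cm. Step 2: spray diluted emulsion onto soil surface at predetermined rate. Step 3: greenhouse, 25–30° C, three weeks. Step 4: grade effect on each plant by earlier criteria.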

[2] = tested on: rice flat sedge; assay: Test Example 3: herbicidal effect by foliage application, Wagner pot (Table 18, symbol E); assay type: in vivo, rice flat sedge (Cyperus iria); conditions: 320 g/ha
In short: (§2)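 Plants were sown in alluvial soil held under 0.1–0.5 cm standing water and grown 14 days in a greenhouse at 25–30 °C. An emulsifiable formulation, water-diluted to the set dose, was then sprayed onto the foliage, and effects were scored three weeks later using previously defined criteria.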

[3] = tested on: barnyard grass; assay: Test Example 5: herbicidal effect by foliage application, plastic box (Table 20, symbol H); assay type: in vivo, barnyard grass (Echinochloa crus-galli); conditions: foliage application, AAH 320 g/ha, three weeks after application
In short: (§3)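 Foliar spray test: emulsion formulation diluted in water to a set application rate, sprayed onto 14-day-old plants raised in diluvial soil at 25° C to 30° C under glass. Both herbicidal effect and crop effect rated visually three weeks later.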

[4] = tested on: Italian ryegrass; assay: Test Example 5: herbicidal effect by foliage application, plastic box (Table 20, symbol K); assay type: in vivo, Italian ryegrass (Lolium multiflorum); conditions: foliage application, AAH 320 g/ha, three weeks after application
In short: as §3

[5] = tested on: lambsquarters; assay: Test Example 4: herbicidal effect by soil treatment (Table 19, symbol O); assay type: in vivo, lambsquarters (Chenopodium album); conditions: amount of applied herbicide 320 g/ha
In short: as §1

[6] = tested on: barnyard grass; assay: Test Example 4: herbicidal effect by soil treatment (Table 19, symbol H); assay type: in vivo, barnyard grass (Echinochloa crus-galli); conditions: amount of applied herbicide 320 g/ha
In short: as §1

[7] = tested on: blackgrass; assay: Test Example 4: herbicidal effect by soil treatment (Table 19, symbol J); assay type: in vivo, blackgrass (Alopecurus myosuroides); conditions: amount of applied herbicide 320 g/ha
In short: as §1

[8] = tested on: southern crabgrass; assay: Test Example 4: herbicidal effect by soil treatment (Table 19, symbol F); assay type: in vivo, southern crabgrass (Digitaria ciliaris); conditions: amount of applied herbicide 320 g/ha
In short: as §1

[9] = tested on: windgrass; assay: Test Example 4: herbicidal effect by soil treatment (Table 19, symbol L); assay type: in vivo, windgrass (Apera spica-venti); conditions: amount of applied herbicide 320 g/ha
In short: as §1

[10] = tested on: wild oat; assay: Test Example 5: herbicidal effect by foliage application, plastic box (Table 20, symbol I); assay type: in vivo, wild oat (Avena fatua); conditions: foliage application, AAH 320 g/ha, three weeks after application
In short: as §3

[11] = tested on: lambsquarters; assay: Test Example 5: herbicidal effect by foliage application, plastic box (Table 20, symbol O); assay type: in vivo, lambsquarters (Chenopodium album); conditions: foliage application, AAH 320 g/ha, three weeks after application
In short: as §3

[12] = tested on: windgrass; assay: Test Example 5: herbicidal effect by foliage application, plastic box (Table 20, symbol L); assay type: in vivo, windgrass (Apera spica-venti); conditions: foliage application, AAH 320 g/ha, three weeks after application
In short: as §3

[13] = tested on: barnyard grass; assay: Test Example 3: herbicidal effect by foliage application, Wagner pot (Table 18, symbol H); assay type: in vivo, barnyard grass (Echinochloa crus-galli); conditions: 320 g/ha
In short: as §2

[14] = tested on: wild oat; assay: Test Example 4: herbicidal effect by soil treatment (Table 19, symbol I); assay type: in vivo, wild oat (Avena fatua); conditions: amount of applied herbicide 320 g/ha
In short: as §1

[15] = tested on: chickweed; assay: Test Example 4: herbicidal effect by soil treatment (Table 19, symbol P); assay type: in vivo, common chickweed (Stellaria media); conditions: amount of applied herbicide 320 g/ha
In short: as §1

[16] = tested on: Chinese sprangletop; assay: Test Example 3: herbicidal effect by foliage application, Wagner pot (Table 18, symbol D); assay type: in vivo, chinese sprangletop (Leptochloa chinensis); conditions: 320 g/ha
In short: as §2

[17] = tested on: velvetleaf; assay: Test Example 4: herbicidal effect by soil treatment (Table 19, symbol M); assay type: in vivo, velvetleaf (Abutilon theophrasti); conditions: amount of applied herbicide 320 g/ha
In short: as §1

[18] = tested on: green foxtail; assay: Test Example 5: herbicidal effect by foliage application, plastic box (Table 20, symbol G); assay type: in vivo, green foxtail (Setaria viridis); conditions: foliage application, AAH 320 g/ha, three weeks after application
In short: as §3

[19] = tested on: redroot pigweed; assay: Test Example 5: herbicidal effect by foliage application, plastic box (Table 20, symbol N); assay type: in vivo, redroot pigweed (Amaranthus retroflexus); conditions: foliage application, AAH 320 g/ha, three weeks after application
In short: as §3

[20] = tested on: southern crabgrass; assay: Test Example 5: herbicidal effect by foliage application, plastic box (Table 20, symbol F); assay type: in vivo, southern crabgrass (Digitaria ciliaris); conditions: foliage application, AAH 320 g/ha, three weeks after application
In short: as §3

[21] = tested on: persian speedwell; assay: Test Example 4: herbicidal effect by soil treatment (Table 19, symbol R); assay type: in vivo, Persian speedwell (Veronica persica); conditions: amount of applied herbicide 320 g/ha
In short: as §1

[22] = tested on: Italian ryegrass; assay: Test Example 4: herbicidal effect by soil treatment (Table 19, symbol K); assay type: in vivo, Italian ryegrass (Lolium multiflorum); conditions: amount of applied herbicide 320 g/ha
In short: as §1

[23] = tested on: velvetleaf; assay: Test Example 5: herbicidal effect by foliage application, plastic box (Table 20, symbol M); assay type: in vivo, velvetleaf (Abutilon theophrasti); conditions: foliage application, AAH 320 g/ha, three weeks after application
In short: as §3

[24] = tested on: persian speedwell; assay: Test Example 5: herbicidal effect by foliage application, plastic box (Table 20, symbol R); assay type: in vivo, Persian speedwell (Veronica persica); conditions: foliage application, AAH 320 g/ha, three weeks after application
In short: as §3

[25] = tested on: blackgrass; assay: Test Example 5: herbicidal effect by foliage application, plastic box (Table 20, symbol J); assay type: in vivo, blackgrass (Alopecurus myosuroides); conditions: foliage application, AAH 320 g/ha, three weeks after application
In short: as §3

[26] = tested on: chickweed; assay: Test Example 5: herbicidal effect by foliage application, plastic box (Table 20, symbol P); assay type: in vivo, common chickweed (Stellaria media); conditions: foliage application, AAH 320 g/ha, three weeks after application
In short: as §3

[27] = tested on: redroot pigweed; assay: Test Example 4: herbicidal effect by soil treatment (Table 19, symbol N); assay type: in vivo, redroot pigweed (Amaranthus retroflexus); conditions: amount of applied herbicide 320 g/ha
In short: as §1

C#CCOc1ccccc1-c1sc2ccccc2c1-c1c(O)c(C)nn(C)c1=O [1-112]
herbicidal effect rating, G: green foxtail [1]: 1 (Herbicidal rate of 5% or more and less than 20%)
herbicidal effect on E (rice flat sedge), rating 0-5 [2]: 3 (Herbicidal rate of 40% or more and less than 70%)
H: barnyard grass, herbicidal effect [3]: 4 (Herbicidal rate of 70% or more and less than 90%)
K: Italian ryegrass, herbicidal effect [4]: 3 (Herbicidal rate of 40% or more and less than 70%)
herbicidal effect rating, O: lambsquarters [5]: 0 (Herbicidal rate of 5% or less (almost no effect))
herbicidal effect rating, H: barnyard grass [6]: 0 (Herbicidal rate of 5% or less (almost no effect))
herbicidal effect rating, J: blackgrass [7]: 4 (Herbicidal rate of 70% or more and less than 90%)
herbicidal effect rating, F: southern crabgrass [8]: 0 (Herbicidal rate of 5% or less (almost no effect))
herbicidal effect rating, L: windgrass [9]: 5 (Herbicidal rate of 90% or more (almost completely withered))
I: wild oat, herbicidal effect [10]: 5 (Herbicidal rate of 90% or more (almost completely withered))
O: lambsquarters, herbicidal effect [11]: 1 (Herbicidal rate of 5% or more and less than 20%)
L: windgrass, herbicidal effect [12]: 5 (Herbicidal rate of 90% or more (almost completely withered))
herbicidal effect on H (barnyard grass), rating 0-5 [13]: 4 (Herbicidal rate of 70% or more and less than 90%)
herbicidal effect rating, I: wild oat [14]: 0 (Herbicidal rate of 5% or less (almost no effect))
herbicidal effect rating, P: chickweed [15]: 5 (Herbicidal rate of 90% or more (almost completely withered))
herbicidal effect on D (Chinese sprangletop), rating 0-5 [16]: 3 (Herbicidal rate of 40% or more and less than 70%)
herbicidal effect rating, M: velvetleaf [17]: 3 (Herbicidal rate of 40% or more and less than 70%)
G: green foxtail, herbicidal effect [18]: 5 (Herbicidal rate of 90% or more (almost completely withered))
N: redroot pigweed, herbicidal effect [19]: 5 (Herbicidal rate of 90% or more (almost completely withered))
F: southern crabgrass, herbicidal effect [20]: 5 (Herbicidal rate of 90% or more (almost completely withered))
herbicidal effect rating, R: persian speedwell [21]: 5 (Herbicidal rate of 90% or more (almost completely withered))
herbicidal effect rating, K: Italian ryegrass [22]: 0 (Herbicidal rate of 5% or less (almost no effect))
M: velvetleaf, herbicidal effect [23]: 4 (Herbicidal rate of 70% or more and less than 90%)
R: persian speedwell, herbicidal effect [24]: 5 (Herbicidal rate of 90% or more (almost completely withered))
J: blackgrass, herbicidal effect [25]: 5 (Herbicidal rate of 90% or more (almost completely withered))
P: chickweed, herbicidal effect [26]: 5 (Herbicidal rate of 90% or more (almost completely withered))
herbicidal effect rating, N: redroot pigweed [27]: 1 (Herbicidal rate of 5% or more and less than 20%)
